Converted amounts (≈) assume the structure as drawn. Like-named read-outs stand apart in the source and are kept apart here. Ends that are not written are not given here.
What was measured:
S. aureus AB94004 [1] = experiment: Competition assay with LPS or LTA (MIC); type: cell-based, Staphylococcus aureus; details: 30 min, n = 3; for MIC, peptide treated with LPS 1: 1 mg/mL peptide + equal volume 5 mg/mL LPS from E. coli; for MIC, peptide treated with LTA: 1 mg/mL peptide + equal volume 5 mg/mL LTA from S. aureus; for MIC, peptide treated with LPS 1+LTA: peptide incubated with LPS 1 and LTA
Method: 1 mg/mL of peptides were incubated with an equal volume of 5 mg/mL of the lipopolysaccharide (LPS, Sigma-Aldrich: L3012/L8643) or lipoteichoic acid (LTA, Sigma-Aldrich: L2515) for 30 min. The MICs of peptides treated with LPS or LTA against S. aureus AB94004 were subsequently measured.

PRSA P1389 [2] = experiment: MIC, broth microdilution; type: cell-based, Staphylococcus aureus; details: penicillin-resistant clinical isolate, LB medium, 10^5–10^6 CFU/mL, 16–18 h at 37°C, triplicate
Method: (§1) The antimicrobial activity was determined via a broth microdilution assay according to the procedure recommended by the Clinical and Laboratory Standards Institute with some modifications ([Hou et al., 2011]; [Li et al., 2016]). Bacteria were cultured in Luria-Bertani (LB) broth to OD600 = 0.6 at 37°C, then diluted to 10^5–10^6 CFU/mL in LB medium. Peptides were serially double diluted to a gradient concentration range from 48.3 to 1.5 μM in physiological saline. Eighty microliters of the bacterial suspension and 20 μL of diluted peptide at varying concentrations were added to 96-well plates, and then incubated for 16–18 h at 37°C with continuous shaking at 250 rpm. The antimicrobial activity of ampicillin and kanamycin were also tested as positive controls. Experiments were performed in triplicate. The minimum inhibitory concentration (MIC) was determined as the lowest peptide concentration at which no bacterial growth was observed.

MRSA P1381 [3] = experiment: MIC, broth microdilution; type: cell-based, Staphylococcus aureus; details: methicillin-resistant clinical isolate, LB medium, 10^5–10^6 CFU/mL, 16–18 h at 37°C, triplicate
Method: as §1

MRSA P1374 [4] = experiment: MIC, broth microdilution; type: cell-based, Staphylococcus aureus; details: methicillin-resistant clinical isolate, LB medium, 10^5–10^6 CFU/mL, 16–18 h at 37°C, triplicate
Method: as §1

[5] = system: Bacillus subtilis AB91021; experiment: MIC, broth microdilution; type: cell-based; details: LB medium, 10^5–10^6 CFU/mL, 16–18 h at 37°C, triplicate
Method: as §1

[6] = system: Bacillus thuringiensis AB92037; experiment: MIC, broth microdilution; type: cell-based; details: LB medium, 10^5–10^6 CFU/mL, 16–18 h at 37°C, triplicate
Method: as §1

[7] = system: Staphylococcus epidermidis AB208188; experiment: MIC, broth microdilution; type: cell-based; details: LB medium, 10^5–10^6 CFU/mL, 16–18 h at 37°C, triplicate
Method: as §1

[8] = system: Staphylococcus aureus ATCC6538; experiment: MIC, broth microdilution; type: cell-based; details: LB medium, 10^5–10^6 CFU/mL, 16–18 h at 37°C, triplicate
Method: as §1

[9] = system: Escherichia coli ATCC25922; experiment: MIC, broth microdilution; type: cell-based; details: LB medium, 10^5–10^6 CFU/mL, 16–18 h at 37°C, triplicate
Method: as §1

Escherichia coli AB94012 = experiment: MIC, broth microdilution; type: cell-based; details: LB medium, 10^5–10^6 CFU/mL, 16–18 h at 37°C, triplicate
Method: as §1

[10] = system: Staphylococcus epidermidis AB208187; experiment: MIC, broth microdilution; type: cell-based; details: LB medium, 10^5–10^6 CFU/mL, 16–18 h at 37°C, triplicate
Method: as §1

[11] = system: Micrococcus luteus AB93113; experiment: MIC, broth microdilution; type: cell-based; details: LB medium, 10^5–10^6 CFU/mL, 16–18 h at 37°C, triplicate
Method: as §1

[12] = system: Pseudomonas aeruginosa ATCC9027; experiment: MIC, broth microdilution; type: cell-based; details: LB medium, 10^5–10^6 CFU/mL, 16–18 h at 37°C, triplicate
Method: as §1

[13] = system: Staphylococcus aureus AB208193; experiment: MIC, broth microdilution; type: cell-based; details: LB medium, 10^5–10^6 CFU/mL, 16–18 h at 37°C, triplicate
Method: as §1

[14] = system: Staphylococcus aureus ATCC25923; experiment: MIC, broth microdilution; type: cell-based; details: LB medium, 10^5–10^6 CFU/mL, 16–18 h at 37°C, triplicate
Method: as §1

MRSA P1386 = details: methicillin-resistant clinical isolate; comparison values; ref Zeng et al., 2004, 2012; Cao et al., 2012a; cited from earlier work
Excerpt: (§2) Table 1 In Vitro antimicrobial activities of marcin-18 and its homologs compared with other peptides and antibiotics. | column: MIC (μM) / BmKn2; MIC (μM) / Van

PRSA P1389 [15] = details: penicillin-resistant clinical isolate; comparison values; ref Zeng et al., 2004, 2012; Cao et al., 2012a; cited from earlier work
Excerpt: as §2

MRSA P1369 = details: methicillin-resistant clinical isolate; comparison values; ref Zeng et al., 2004, 2012; Cao et al., 2012a; cited from earlier work
Excerpt: as §2

MRSA P1381 [16] = details: methicillin-resistant clinical isolate; comparison values; ref Zeng et al., 2004, 2012; Cao et al., 2012a; cited from earlier work
Excerpt: as §2

PRSA P1383 = details: penicillin-resistant clinical isolate; comparison values; ref Zeng et al., 2004, 2012; Cao et al., 2012a; cited from earlier work
Excerpt: as §2

MRSA P1374 [17] = details: methicillin-resistant clinical isolate; comparison values; ref Zeng et al., 2004, 2012; Cao et al., 2012a; cited from earlier work
Excerpt: as §2

MRSA P1381 [18] = experiment: Mouse peritonitis model; type: in vivo, BALB/c mice; details: n = 6
Method: Six to eight-week-old male BALB/c mice (18–21 g) were purchased from the Animal Center for Disease Control and Prevention (Hubei, China) and maintained under specific pathogen-free conditions at 25 ± 2°C and 50 ± 5% humidity, on a 12 h/12 h light/dark cycle.
All methods were performed in accordance with the relevant guidelines ([Dai et al., 2008]; [Peng et al., 2017]). The mice were intraperitoneally (i.p.) injected with 0.5 mL/mouse (5.85 × 10^7 CFU) of the exponential phase MRSA P1381 inoculum in physiological saline containing 5% (wt/v) mucin. At 1 h after the bacterial infection, the mice were i.p. injected with 0.4 mL/mouse of physiological saline (I) (to serve as a negative control), marcin-18 peptide (10 mg/kg) (II), marcin-18 peptide (25 mg/kg) (III), meucin-18 peptide (25 mg/kg) (IV), megicin-18 peptide (25 mg/kg) (V), and vancomycin (25 mg/kg) (VI). The vancomycin dose was set based on previous studies ([Cavanagh et al., 2013]; [Wang et al., 2018]). Each group included 6 mice. After another 24 h post administration, subject peritonea were lavaged with 1 mL of physiological saline and lavage fluids were then collected. Ascites were diluted and plated on LB agar so that the number of bacterial colonies could be counted. The ability of the three peptides to rescue mice from lethal bacteremia was observed 2–4 times daily and survival was tracked for 7 days.

[19] = system: Escherichia coli ATCC25922; details: comparison values; ref Zeng et al., 2004, 2012; Cao et al., 2012a; cited from earlier work
Excerpt: (§3) Table 1 In Vitro antimicrobial activities of marcin-18 and its homologs compared with other peptides and antibiotics. | column: MIC (μM) / BmKn2; MIC (μM) / Amp; MIC (μM) / Kana

[20] = system: Staphylococcus aureus AB94004; details: comparison values; ref Zeng et al., 2004, 2012; Cao et al., 2012a; cited from earlier work
Excerpt: as §3

S. aureus AB94004 [21] = experiment: SYTOX green fluorescence measurement (membrane integrity); type: cell-based, Staphylococcus aureus; details: positive control; 5 μM SYTOX green; n = 3
Method: S. aureus AB94004 were cultured to exponential phase (ca. 10^7 CFU/mL), centrifuged and suspended in physiological saline. Then the fluorescence dye SYTOX green (Invitrogen) was added at a final concentration of 5 μM. After incubation for 10 min, 50 μL bacterial culture and equal volume of peptides serially diluted in physiological saline at final concentrations of 1 × MIC, 2 × MIC, and 4 × MIC were added in a Greiner 96-well flat-bottom black plate. Physiological saline and MSI 78 were used as negative and positive controls. Fluorescence was measured over 30 min at the excitation and emission wavelengths of 488 and 525 nm, respectively.

[22] = system: Staphylococcus aureus AB94004; experiment: MIC, broth microdilution; type: cell-based; details: legend of Figure 6
Method: as §1

Molecule | MIC (PRSA P1389 [2]) | MIC (MRSA P1381 [3]) | MIC (MRSA P1374 [4]) | MIC [5] | MIC [6] | MIC [7] | MIC [8] | MIC [9] | MIC (Escherichia coli AB94012) | MIC [10] | MIC [11] | MIC [12] | MIC [13] | MIC [14] | also measured
FFGALFKLATKIIPSLFR-NH2 [Megicin-18] | 1.5 µM | 3.0 µM | 3.0 µM | 3.0 µM | 1.5 µM | 1.5 µM | 1.5 µM | 12.1 µM | >48.3 µM | 1.5 µM | >48.3 µM | 12.1 µM | 3.0 µM | 3.0 µM | MIC, peptide treated with LPS 1 (S. aureus AB94004 [1]): 3 µM; MIC, peptide treated with LTA (S. aureus AB94004 [1]): 3 µM; MIC, peptide treated with LPS 1+LTA (S. aureus AB94004 [1]): 3 µM
FFGHLFKLATKIIPSLFQ-NH2 [Meucin-18] | 3.0 µM | 1.5 µM | 3.0 µM | 3.0 µM | 3.0 µM | 1.5 µM | 1.5 µM | 11.9 µM | 23.7 µM | 3.0 µM | 47.5 µM | 11.9 µM | 3.0 µM | 3.0 µM | –
CN[C@H](CC(C)C)C(=O)N[C@H]1C(=O)N[C@@H](CC(N)=O)C(=O)N[C@H]2C(=O)N[C@H]3C(=O)N[C@H](C(=O)N[C@H](C(=O)O)c4cc(O)cc(O)c4-c4cc3ccc4O)[C@H](O)c3ccc(c(Cl)c3)Oc3cc2cc(c3O[C@@H]2O[C@H](CO)[C@@H](O)[C@H](O)[C@H]2O[C@H]2C[C@](C)(N)[C@H](O)[C@H](C)O2)Oc2ccc(cc2Cl)[C@H]1O [Van, vancomycin] | – | – | – | – | – | – | – | – | – | – | – | – | – | – | MIC (MRSA P1386): 2.1 µM (≈ 3.04 µg/mL); MIC (PRSA P1389 [15]): 4.2 µM (≈ 6.09 µg/mL); MIC (MRSA P1369): 4.2 µM (≈ 6.09 µg/mL); MIC (MRSA P1381 [16]): 2.1 µM (≈ 3.04 µg/mL); MIC (PRSA P1383): 4.2 µM (≈ 6.09 µg/mL); MIC (MRSA P1374 [17]): 4.2 µM (≈ 6.09 µg/mL); survival of infected mice (MRSA P1381 [18]; 25 mg/kg i.p. single dose 1 h after i.p. 5.85 × 10^7 CFU MRSA P1381, 7 days): 100%; bacteria in ascites of antibiotic-treated group (MRSA P1381 [18]; 25 mg/kg i.p., peritoneal lavage 24 h after administration): few detectable bacteria
CC1(C)S[C@@H]2[C@H](NC(=O)[C@H](N)c3ccccc3)C(=O)N2[C@H]1C(=O)O [Amp, ampicillin] | – | – | – | – | – | – | – | – | – | – | – | – | – | – | MIC [19]: 33.7 µM (≈ 11.8 µg/mL); MIC [20]: 67.3 µM (≈ 23.5 µg/mL)
GIGKFLKKAKKFGKAFVKILKK-NH2 (C-terminus assumed) [MSI 78] | – | – | – | – | – | – | – | – | – | – | – | – | – | – | SYTOX green fluorescence (S. aureus AB94004 [21]): stable increase; MIC of control substances [22]: 2.5 µM
FFGHLFKLATKIIPSLFR-NH2 [Marcin-18] | 2.9 µM | 1.5 µM | 2.9 µM | 2.9 µM | 2.9 µM | 2.9 µM | 1.5 µM | 5.9 µM | 11.7 µM | 2.9 µM | 23.4 µM | 5.9 µM | 2.9 µM | 2.9 µM | MIC, peptide treated with LPS 1 (S. aureus AB94004 [1]): 2.9 µM; MIC, peptide treated with LPS 2 (S. aureus AB94004 [1]; 1 mg/mL peptide + equal volume 5 mg/mL LPS from P. aeruginosa): 2.9 µM; MIC, peptide treated with LTA (S. aureus AB94004 [1]): 2.9 µM; MIC, peptide treated with LPS 1+LTA (S. aureus AB94004 [1]): 2.9 µM
CC[C@H](C)[C@H](NC(=O)CN)C(=O)NCC(=O)N[C@@H](C)C(=O)N[C@H](C(=O)N[C@@H](CC(C)C)C(=O)N[C@@H](CCCCN)C(=O)N[C@H](C(=O)N[C@@H](CC(C)C)C(=O)N[C@H](C(=O)N[C@H](C(=O)NCC(=O)N[C@@H](CC(C)C)C(=O)N1CCC[C@H]1C(=O)N[C@@H](C)C(=O)N[C@@H](CC(C)C)C(=O)N[C@H](C(=O)N[C@@H](CO)C(=O)N[C@@H](Cc1c[nH]c2ccccc12)C(=O)N[C@H](C(=O)N[C@@H](CCCCN)C(=O)N[C@@H](CCCNC(=N)N)C(=O)N[C@@H](CCCCN)C(=O)N[C@@H](CCCNC(=N)N)C(=O)N[C@@H](CCC(N)=O)C(=O)N[C@@H](CCC(N)=O)C(N)=O)[C@@H](C)CC)[C@@H](C)CC)[C@@H](C)O)[C@@H](C)O)C(C)C)C(C)C [melittin] | – | – | – | – | – | – | – | – | – | – | – | – | – | – | MIC of control substances [22]: 2.2 µM

Reference: publication PMC5987058, “Therapeutic Potential of a Scorpion Venom-Derived Antimicrobial Peptide and Its Homologs Against Antibiotic-Resistant Gram-Positive Bacteria” (Frontiers in Microbiology, 2018)
